Holding throughout (assay): DTP human tumour cell line panel, 48 h
Experiment [1] deals with SNB-19 CNS.
The subject of experiment [2] is DU-145 prostate.
The test system of experiment [3] is M19-MEL melanoma.
In experiment [4] the test system is RPMI-8226 leukemia.
For experiment [5], the system named is XF 498 CNS.
Experiment [6] deals with SK-MEL-2 melanoma.
The test system of experiment [7] is UO-31 renal.
The subject of experiment [8] is K-562 leukemia.
The subject of experiment [9] is LOX IMVI melanoma.
Experiment [10] concerns T-47D breast.

The results in this text go back to PubChem BioAssay (NCI).

Several values for one entry are separate records, joined by “and”; a condition that tells them apart may be missing. Identical values can stand only once.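 How tested: cells in 96-well plates exposed to compound for 48 hours at five concentrations. GI50 is the concentration that inhibits growth by half. At the TGI there is no net growth.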

The term GI50 denotes the concentration giving 50% growth inhibition. By TGI is commonly meant the concentration giving total growth inhibition. A lower TGI goes with greater sensitivity of the cells. For `COc1cc(C2c3cc4c(cc3[C@@H](Nc3cccc(O)c3)C3COC(=O)[C@H]23)OCO4)cc(OC)c1O` (some centres not stated), the GI50 is 0.949 µM in [1]; 0.747 µM in experiment [3]; 0.45 µM in experiment [4]; 0.52 µM in [5]; 0.779 µM in [7]; 0.802 µM in [8]. For the same molecule, in experiment [9], the GI50 is 0.535 µM. The TGI is 24.9 µM in experiment [1]; 1.75 µM in experiment [2]; 18.9 µM in [3]; 9.31 µM in [4]; 0.985 µM and 8.34 µM in experiment [5]; 15 µM in [6]. Also, the TGI came to 7.4 µM in experiment [7], 22.2 µM in experiment [8], 7.3 µM in experiment [9] and 53.2 µM in experiment [10].
As to `O=C1c2ccccc2C(=O)c2c1ccc1c3ccccc3n(Cc3ccccc3)c21`, the TGI in experiment [3], in [4], in [5], in experiment [6], in experiment [7] and in experiment [8] was above 100 µM each time. Also, the TGI in experiment [9] was above 100 µM.
Regarding `N#CC(=C=[N-])[n+]1ccc(Cl)cc1`, the TGI in [1] turned out to be 94.5 µM; in experiment [3], 27.8 µM; in experiment [4], 60.7 µM; in [5] it was 33.4 µM; in [7] it was 59.9 µM; in experiment [8], 11.3 µM. In experiment [9], this molecule gave a concentration for total growth inhibition (TGI) of 26.2 µM.
`CCC1NCC(=O)c2c1[nH]c1ccccc21` (configuration not stated): the concentration for total growth inhibition (TGI) in experiment [1], in [3], in experiment [4], in [6], in experiment [7] and in [8] was above 100 µM each time. In addition, the TGI in experiment [9] is above 100 µM.
Consider `CCCCCCCCCCCCCCCC(=O)OCC1OC(n2ccc(N)nc2=O)C(O)C1O` (configuration not stated), for which the TGI in experiment [1] is above 100 µM; in experiment [2] it was 67.2 µM; in experiment [3], above 100 µM; in [4], above 100 µM; in [5], above 100 µM; in experiment [6] it was above 100 µM. The TGI was above 44.7 µM in [7], above 100 µM in experiment [8], above 100 µM in experiment [9] and above 100 µM in [10].
As to `CC[C@@]1(OC(=O)CN(C)C)C(=O)OCc2c1cc1n(c2=O)Cc2cc3ccccc3nc2-1`, the GI50 in experiment [2] is 0.0207 µM; in experiment [3], 0.101 µM; in experiment [4], 0.00464 µM; in experiment [6] it was 1.09 µM; in experiment [7], 0.0181 µM; in experiment [8], 0.108 µM. Further, the GI50 in experiment [9] is below 0.0161 µM; in [10] it was 0.00498 µM and 0.0451 µM. Also, the TGI in [2] was 0.246 µM and 0.484 µM; in experiment [3] it was 2.13 µM and 1.09 µM; in [5] it was 3.19 µM; in experiment [6], 3.47 µM and 5.34 µM; in experiment [7], 0.231 µM and 0.107 µM; in experiment [8] it was 7.67 µM and > 41.5 µM. For the same molecule, the TGI in experiment [9] is 0.285 µM and 0.218 µM; in [10], 0.32 µM and 2.03 µM.
As to `Nc1ccc2c(c1)CN1C(=O)c3ccccc3C1=N2`, the GI50 was 60.6 µM in [1]; 54.8 µM in [3]; 34.1 µM in experiment [4]; 44 µM in [7]; 52.4 µM in [8]. Also, the TGI in experiment [1] is 124 µM; in experiment [2], above 125 µM; in [3], above 125 µM; in experiment [4], above 125 µM; in [6] it was above 125 µM; in experiment [7], above 125 µM. Also, the TGI in experiment [8], in [9] and in [10] was above 125 µM in each case.
Turning to `C/C(=N\NC(=S)N1CCC(C2CCN(C(=S)N/N=C(\C)c3ccccn3)CC2)CC1)c1ccccn1`, the TGI in experiment [1] is above 100 µM; in [3], above 100 µM; in experiment [4], above 100 µM; in experiment [5], 86.5 µM; in experiment [7], above 100 µM; in experiment [8], above 100 µM. Further, in experiment [9], the TGI was above 100 µM.
In the case of `O=C(OCc1nc2ccc(Br)cc2c(=O)n1-c1ccccc1)c1ccccc1O`, the TGI in [3], in [4], in experiment [5], in [6], in experiment [7] and in experiment [8] was above 100 µM each time. In experiment [9], this molecule returned a TGI above 100 µM.
For `CC(C)=C1CCC(CN2CCCC2)C1=O` (configuration not stated), the TGI in experiment [1] is above 100 µM; in [3], 37.4 µM; in experiment [4], 37.8 µM; in experiment [5], 34 µM; in experiment [6], 77.2 µM; in experiment [7], 36.1 µM. For the same molecule, the concentration for total growth inhibition (TGI) in experiment [8] and in [9] was above 100 µM each time.
With `O=C1CC2Sc3ccccc3N=C2N1c1ccc(Cl)cc1Cl` (configuration not stated), the concentration for total growth inhibition (TGI) in experiment [1], in experiment [3], in experiment [4], in experiment [5], in experiment [6] and in [7] was above 100 µM each time. The TGI in experiment [9] was above 100 µM.
On to `CCOC(=N)CC(=O)NC(C)c1ccccc1` (configuration not stated), for which the TGI in experiment [1], in experiment [3], in experiment [5], in experiment [6], in [7] and in experiment [8] was above 100 µM throughout. In addition, the TGI in experiment [9] was above 100 µM.
Turning to `CCCCCCCCCCCCCCCC(=O)N[C@H]1CCc2cc(OC)c(OC)c(OC)c2-c2ccc(SC)c(=O)cc21`, the GI50 in [1] was 2.46 µM; in experiment [3] it was 3.15 µM; in [5], 2.18 µM; in experiment [8] it was 0.709 µM. Besides, the TGI in experiment [1] was 9.27 µM and 8.35 µM; in [3], 13.6 µM and 13.7 µM; in experiment [4] it was 22.7 µM; in experiment [5], 8.5 µM and 8.63 µM; in experiment [6], 4.46 µM; in [7] it was 18.4 µM. For the same molecule, the TGI was 11.1 µM and 14.5 µM in [8]; 11.9 µM in [9].
As for `CCOC(=O)NNC(=O)NC12CC3CC(CC(C3)C1)C2`, the TGI in experiment [1], in experiment [3], in experiment [5], in experiment [6], in [7] and in experiment [8] was above 100 µM each time. This molecule also returned a TGI in experiment [9] above 100 µM.
With `C/C(=N/Nc1ccc([N+](=O)[O-])cc1[N+](=O)[O-])C(CC(C(=O)Nc1ccccc1C)/C(C)=N\Nc1ccc([N+](=O)[O-])cc1[N+](=O)[O-])C(=O)Nc1ccccc1C` (configuration not stated), the TGI is 32 µM in [1]; 28.1 µM in [3]; above 69.3 µM in experiment [4]; 33.8 µM in [5]; 28.2 µM in experiment [6]; 39.9 µM in experiment [7]. Moreover, the TGI is above 100 µM in experiment [8] and 36 µM in experiment [9].
Consider `CC[C@@]1(O)C(=O)OCc2c1cc1n(c2=O)Cc2cc3c(NC(C)=O)c(O)ccc3nc2-1`, for which the GI50 in experiment [1] is 0.917 µM; in experiment [3], 4.93 µM; in experiment [4], 4.58 µM; in experiment [5] it was 5.39 µM; in experiment [6], 17.8 µM; in experiment [7], 1.76 µM. Besides, the results for the GI50 in [8] and in experiment [9] were 3.47 µM and 0.497 µM, respectively. Moreover, the TGI is above 56.6 µM in experiment [1]; 43.7 µM in [3]; 56.8 µM in experiment [4]; 51 µM in experiment [5]; 53.5 µM in experiment [6]; 16.2 µM in experiment [7]. Also, the values for the TGI in experiment [8] and in [9] were above 70.2 µM and 6.31 µM, respectively.
